Legend:
IFN-γ = experiment: T cell-derived cytokine from lung tissue, E. coli-EV-induced model (ELISA); type: in vivo, mice
Protocol: (§1) In order to examine whether the extract of the present invention has the effect of inhibiting T cell-derived cytokine isolated from the lung tissue of an E. coli-EV-derived asthma/chronic obstructive pulmonary disease model, the following test was performed.
(§2) Specifically, the […] asthma/chronic obstructive pulmonary disease model was prepared by treatment with each of the extract of Example 2 and a comparative drug in the same manner as described in Test Example 8-1. At 6 hours after the final challenge, the mice were anesthetized by intraperitoneal injection with ketamine and xylazine, and lung tissue was obtained from the mice. The lung tissue was cut finely with a blade and incubated with 5 ml of 1× Trypsin-EDTA and 1000 units of chollagenase at 37 °C for 10 minutes. Then, the tissue was passed through a 100 μm mesh to collect only immune cells. To stimulate T cells among the collected cells, 1×10^5 cells and anti-CD28 (1 μg/ml) were added to a 96-well plate coated with anti-CD3 (1 μg/ml) and were incubated in an incubator at 37° C. for 12 hours. Next, the supernatant was collected, and the amounts of cytokines in the supernatant were measured using an ELISA assay.

IL-17 = experiment: as above; type: in vivo, mice
Protocol: as §1, §2

[1] = test system: airway constriction of the sensitized guinea pigs; experiment: Test for airway constriction inhibition (in vivo), airway resistance AUC after ovalbumin aerosol; conditions: oral dose 10 mg/kg
[2] = test system: anti-ovalbumin-specific IgG1 antibody; experiment: Antigen-specific antibody in serum, LPS-induced asthma/COPD model (ELISA); type: in vivo, mice
Protocol: In order to examine whether the extract of the present invention has the ability to produce an antigen-specific antibody in an LPS-induced asthma/chronic obstructive pulmonary disease model, the LPS-induced asthma/chronic obstructive pulmonary disease model was prepared by treatment with each of the extract of Example 2 and a comparative drug in the same manner as described in Test Example 7-1. At 48 hours after the final challenge, the mice were anesthetized by intraperitoneal injection with ketamine and xylazine. Then, blood was collected from the heart using a 1 ml syringe, and serum was separated from the blood by centrifugation. Then, an anti-ovalbumin-specific IgG1 antibody in the serum was measured according to an ELISA assay, and the results of the measurement are shown in Table 11 below.

[3] = test system: inflammatory cells in pulmonary bronchoalveolar lavage; experiment: Inflammatory cells in pulmonary bronchoalveolar lavage, E. coli-EV-induced asthma/COPD model; type: in vivo, mice
Protocol: Whether the extract of the present invention has the effect of inhibiting pulmonary bronchial inflammation in an E. coli-EV-induced asthma/chronic obstructive pulmonary disease model was evaluated.
Specifically, a mixture of 10 ng of E. coli-EV and PBS was intranasally administered a total of four times (days 0, 1, 2 and 7) into C57BL/6 male mice (6 weeks old; provided from the Animal Laboratory in Biotech Center, Pohang University of Science & Technology) to sensitize the mice. At 14, 15, 21 and 22 days from the first sensitization date, 10 ng of E. coli-EV was challenged into the nasal cavity to induce asthma and chronic obstructive pulmonary disease. In addition, at 14, 15, 21 and 22 days at which the challenge was performed, each of 1.0% CMC, 100, 200 and 400 mg/10 ml/kg of the extract of Example 2, 1 mg/10 ml/kg of the comparative drug dexamethason and 10 mg/10 ml/kg of the comparative drug montelukast was orally administered twice a day. At 48 hours after the final challenge, the mice were anesthetized by intraperitoneal administration of ketamine and xylazine, and the organ of the mice was exposed and a catheter was inserted therein. Then, the bronchoalveoli were laved with each of 0.8 and 0.7 ml of sterile phosphate buffered saline to obtain a bronchoalveolar lavage The bronchoalveolar lavage was centrifuged at 4° C. at 1000 rpm for 5 minutes, and the supernatant was removed. 2 ml of 10% FBS-IMDM (fetal bovine serum—Iscove's Modified Dulbecco's Medium) was added to the cells which were then counted. Then, the cells were cytospun, plated on a slide, and Diff-Quick stained. At least 300 inflammatory cells were observed by the staining method and classified into eosinophils, macrophages, neutrophils and lymphocytes, and the cell numbers of the groups treated with dexamethason, montelukast and the extract of Example 2 were compared with the ratios of inflammatory cells in the pulmonary bronchoalveolar lavages of the negative control group and the positive control group, thereby evaluating the inhibitory effects of the test materials against airway inflammation.

[4] = test system: IP-10 (interferon-gamma inducible protein-10); experiment: Inflammatory mediator in bronchoalveolar lavage, LPS-induced asthma/COPD model (ELISA); type: in vivo, mice; conditions: ovalbumin + LPS model
Protocol: In order to examine whether the extract of the present invention has the effect of inhibiting inflammatory mediators in a bronchoalveolar lavage in an LPS-induced asthma/chronic obstructive pulmonary disease model, the expression pattern of the inflammatory mediator IP-10 (interferon-gamma inducible protein-10) in the bronchoalveolar lavage obtained in Test Example 7-2 was measured using an ELISA assay, and the results of the measurement are shown in Table 10 below.

[5] = test system: anti-E. coli-EV-specific IgG1; experiment: Antigen-specific antibody in serum, E. coli-EV-induced model (ELISA); type: in vivo, mice
Protocol: (§3) In order to examine whether the extract of the present invention has the ability to produce an antigen-specific antibody in an E. coli-EV-induced asthma/chronic obstructive pulmonary disease model, the E. coli-EV-induced asthma/chronic obstructive pulmonary disease model was prepared by treatment with each of the extract of Example 2 and a comparative drug in the same manner as described in Test Example 8-1. At 48 hours after the final challenge, the mice were anesthetized by intraperitoneal injection with ketamine and xylazine. Then, blood was collected from the heart using a 1 ml syringe, and serum was separated from the blood by centrifugation. Then, anti-E. coli-EV-specific IgG1 and IgG2a antibodies in the serum were measured according to an ELISA assay, and the results of the measurement are shown in Table 15 below.

[6] = test system: anti-E. coli-EV-specific IgG2a; experiment: as above; type: in vivo, mice
Protocol: as §3

[7] = test system: co-stimulatory molecules CD40, CD80, CD86 and MHCII; experiment: Co-stimulatory molecules in lung dendritic cells, E. coli-EV-induced model (FACS); type: in vivo, mice; conditions: 1 mg/kg twice a day, FIG. 5
Protocol: In order to examine whether the extract of the present invention has the effect of inhibiting the expression of co-stimulatory molecules in dendritic cells isolated from the lung tissue of an E. coli-EV-induced asthma/chronic obstructive pulmonary disease model, the following test was performed.
Specifically, a portion of the lung tissue obtained in Test Example 8-4 was cut finely with a blade, and then incubated with 5 ml of 1× Trypsin-EDTA and 1000 units of collagenase at 37 °C for 10 minutes. Then, the tissue was passed through a 100 μm mesh to collect only immune cells, and the cells were double-stained with each of the dendritic cell marker CD11c and the co-stimulatory molecules CD40, CD80, CD86 and MHCII (major histocompatibility complex II). Next, the expression levels of the co-stimulatory molecules in the dendritic cells were measured using FACS (fluorescence activated cell sorter), and the results of the measurement are shown in FIG. 5.

CC(C)(O)c1ccccc1CC[C@@H](SCC1(CC(=O)O)CC1)c1cccc(/C=C/c2ccc3ccc(Cl)cc3n2)c1 [montelukast]
IFN-γ inhibition rate (%) (IFN-γ; 10 mg/kg b.i.d.): 0.23%
IL-17 inhibition rate (%) (IL-17; 10 mg/kg b.i.d.): 0.22%
Airway constriction inhibition rate (%) [1]: 53%
IGg1 in serum ([2]; 10 mg/kg b.i.d.): 44.84
IGg1 in serum, Inhibition rate (%) ([2]; 10 mg/kg b.i.d.): 33.91%
Inhibition rate(%) Eosinophils ([3]; 10 mg/kg b.i.d.): 15.4%
Inhibition rate(%) Macrophages ([3]; 10 mg/kg b.i.d.): 1.3%
Inhibition rate(%) Total cells ([3]; 10 mg/kg b.i.d.): 1.2%
IP-10 inhibition rate (%) ([4]; 10 mg/kg b.i.d.): 1.80%
Inhibition rate(%) IgG1 ([5]; 10 mg/kg b.i.d.): 59.7%
Inhibition rate(%) IgG2a ([6]; 10 mg/kg b.i.d.): 27.2%

C[C@@H]1C[C@H]2[C@@H]3CCC4=CC(=O)C=C[C@]4(C)[C@@]3(F)[C@@H](O)C[C@]2(C)[C@@]1(O)C(=O)CO [Dexamethason, dexamethason]
IFN-γ inhibition rate (%) (IFN-γ; 1 mg/kg b.i.d.): 1.13%
IL-17 inhibition rate (%) (IL-17; 1 mg/kg b.i.d.): 1.12%
IGg1 in serum ([2]; 1 mg/kg b.i.d.): 28.94
IGg1 in serum, Inhibition rate (%) ([2]; 1 mg/kg b.i.d.): 57.35%
expression levels of the co-stimulatory molecules in the dendritic cells [7]: a decrease in the expression of CD86 and MHCII
Inhibition rate(%) Eosinophils ([3]; 1 mg/kg b.i.d.): 1.1%
Inhibition rate(%) Macrophages ([3]; 1 mg/kg b.i.d.): 24.7%
Inhibition rate(%) Total cells ([3]; 1 mg/kg b.i.d.): 9.2%
IP-10 inhibition rate (%) ([4]; 1 mg/kg b.i.d.): 4.09%
Inhibition rate(%) IgG1 ([5]; 1 mg/kg b.i.d.): 93.8%
Inhibition rate(%) IgG2a ([6]; 1 mg/kg b.i.d.): 55.7%
